In patent publication US20260199325A1, “NOVEL SUBSTITUTED PYRAZINE-CARBOXAMIDE-IMIDAZOPYRIDINE DERIVATIVES” (Boehringer Ingelheim International GmbH, priority 2022, published 2026):

Biological target: T1, human metabotropic Glutamate 4 receptor (Homo sapiens, UniProt Q14833)
T1 construct: expressed in transfected cells; host or cells: HEK293
Assay: In vitro testing of mGluR4 potency (Assay A), cAMP HTRF in HEK293 cells
Format: cell-based
Conditions: Table 2; HEK293 cell overexpressing human mGluR4; 10 uM L-Glutamic acid, 1 uM forskolin
Protocol: A. In Vitro Testing of mGluR4 Potency
The in vitro activity of the compounds according to the invention may be investigated as follows:
The HEK293 cell overexpressing the human metabotropic Glutamate 4 receptor were thawed at 37° C. and immediately diluted with cell culture medium. After centrifugation, the cell pellet is re-suspended in medium and then distributed from a stirred spinner flask into the wells of the assay plate. The plates are incubated for one hour at room temperature before they are incubated for 24 hours at 37° C./5% C02. After washing the cells in the plate three times with 80 uL HBSS/HEPES buffer (10 uL buffer remained in the wells after washing), 5 uL per well of compounds diluted in HBSS/HEPES buffer containing 0.2% BSA (final concentration: 0.1%) and 1 mM IBMX (final concentration: 0.5 mM) are added to the wells of the assay plate. Thereafter 5 uL per well of L-Glutamic acid (final concentration: 10 uM), forskolin (final concentration: 1 uM) and 1 mM IBMX (final concentration: 0.5 mM) dissolved in HBSS/HEPES buffer containing 0.2% BSA (final concentration: 0.1%) are added to the assay plate (final DMSO concentration: 1%). Several wells of the assay plate are used either for the positive and the negative controls or for the cAMP standard curve. The assay plate is incubated for 30 minutes at room temperature. Then 5 ul per well of Anti-cAMP-Antibody-d2 solution and 5 ul per well of cAMP-Europium Cryptate dilution are added to all wells of the plate and the plate is incubated another 60 minutes light protected at room temperature. The emission at 615 nm and 665 nm (Excitation wavelength: 320 nm) are measured on the EnVision™ reader (PerkinElmer). The ratio between the emission at 665 nm and 615 is calculated by the reader. The whole assay is performed in the dark or under green light.
The cAMP standard is prepared by diluting the cAMP stock solution with HBSS/Hepes buffer: 5 μl/well of the cAMP dilutions (in HBSS/Hepes buffer containing 1 mM IBMX and 0.2% BSA-final concentration: 0.5 mM IBMX and 0.1% BSA) are added to 10 ul/well HBSS/Hepes buffer plus 5 ul/well 4% DMSO in HBSS/Hepes containing 0.2% BSA (final DMSO concentration: 1%-like in the wells containing compounds) in the wells of the assay plate. The final cAMP concentrations in the assay plate were: 0, 0.17, 0.69, 2.78, 11.1, 44.5, 178, and 712 nM (two wells/cAMP concentration).
Each assay microtiter plate contained also wells with vehicle controls instead of compound as controls for L-Glutamic acid induced signal (negative control; 100% CTL; 10 uM L-Glutamic acid+1 uM forskolin+0.5 mM IBMX+1% DMSO) and wells with vehicle controls without L-Glutamic acid as controls for non-specific changes in signal (positive control; 0% CTL; 0 uM L-Glutamic acid+1 uM forskolin+0.5 mM IBMX+1% DMSO).
The analysis of the data is performed by the calculation the ratio between the emission at 665 nm and the emission at 615 nm (Em665/Em615 ratio). Thereafter the signals of the compounds are normalized using the positive and negative controls by the following formula:
PoC=100×((Signal Sample−Positive Control)/(Negative Control−Positive Control))

T1 sequence (Q14833 33-912): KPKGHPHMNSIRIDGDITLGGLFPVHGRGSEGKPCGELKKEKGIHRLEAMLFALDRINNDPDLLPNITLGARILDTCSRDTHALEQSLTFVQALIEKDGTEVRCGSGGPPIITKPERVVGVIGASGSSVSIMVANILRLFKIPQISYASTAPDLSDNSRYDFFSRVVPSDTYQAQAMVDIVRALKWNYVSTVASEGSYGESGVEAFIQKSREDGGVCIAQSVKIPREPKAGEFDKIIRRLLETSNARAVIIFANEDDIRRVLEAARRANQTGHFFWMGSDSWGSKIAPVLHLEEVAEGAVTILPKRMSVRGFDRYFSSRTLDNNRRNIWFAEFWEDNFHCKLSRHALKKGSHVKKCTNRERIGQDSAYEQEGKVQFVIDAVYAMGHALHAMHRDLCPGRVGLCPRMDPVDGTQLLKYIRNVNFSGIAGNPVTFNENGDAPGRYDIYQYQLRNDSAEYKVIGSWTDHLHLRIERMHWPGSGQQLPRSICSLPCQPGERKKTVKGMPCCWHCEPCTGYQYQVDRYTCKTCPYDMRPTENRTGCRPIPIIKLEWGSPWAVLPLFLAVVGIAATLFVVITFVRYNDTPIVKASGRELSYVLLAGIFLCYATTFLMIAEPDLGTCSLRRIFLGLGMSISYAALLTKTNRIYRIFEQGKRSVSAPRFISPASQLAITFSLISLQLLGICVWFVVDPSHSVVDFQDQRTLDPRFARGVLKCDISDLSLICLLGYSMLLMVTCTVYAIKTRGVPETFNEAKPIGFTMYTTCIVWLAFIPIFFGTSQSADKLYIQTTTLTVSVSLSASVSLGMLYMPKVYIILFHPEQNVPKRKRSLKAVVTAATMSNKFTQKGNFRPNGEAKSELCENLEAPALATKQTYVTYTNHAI

SMILES	IC50
Cc1cnc(C(=O)N[C@H](c2nc3c(C)nc(C(F)(F)F)cc3n2C(C)C)C2CC2)cn1 [Example 16, N-[(S)-cyclopropyl[4-methyl-1-(propan-2-yl)-6-(trifluoromethyl)-1H-imidazo[4,5-c]pyridin-2-yl]methyl]-5-methylpyrazine-2-carboxamide]	13 nM
CO[C@H](C)[C@H](NC(=O)c1cnc(C(F)F)cn1)c1nc2c(C)c(C#N)cnc2n1C(C)C [Example 19, N-[(1R,2R)-1-[6-cyano-7-methyl-3-(propan-2-yl)-3H-imidazo[4,5-b]pyridin-2-yl]-2-methoxypropyl]-5-(difluoromethyl)pyrazine-2-carboxamide]	8 nM
Cc1c(C#N)cnc2c1nc([C@@H](NC(=O)c1cnc(C(F)F)cn1)[C@@H](C)OC(F)F)n2C(C)C [Example 20, N-[(1R,2R)-1-[6-cyano-7-methyl-3-(propan-2-yl)-3H-imidazo[4,5-b]pyridin-2-yl]-2-(difluoromethoxy)propyl]-5-(difluoromethyl)pyrazine-2-carboxamide]	8 nM
Cc1cnc(C(=O)N[C@H](c2nc3c(C)c(C#N)cnc3n2C(C)C)[C@@H](C)OC(F)F)cn1 [Example 21, N-[(1R,2R)-1-[6-cyano-7-methyl-3-(propan-2-yl)-3H-imidazo[4,5-b]pyridin-2-yl]-2-(difluoromethoxy)propyl]-5-methylpyrazine-2-carboxamide]	9 nM
Cc1nc(C(F)(F)F)cc2c1nc([C@@H](NC(=O)c1cnc(C(F)F)cn1)C1CC1)n2C(C)C [Example 22, N-[(S)-cyclopropyl[4-methyl-1-(propan-2-yl)-6-(trifluoromethyl)-1H-imidazo[4,5-c]pyridin-2-yl]methyl]-5-(difluoromethyl)pyrazine-2-carboxamide]	10 nM
CO[C@@H](C)[C@H](NC(=O)c1cnc(C)cn1)c1nc2cc(Cl)cnc2n1C(C)C [Example 23, N-[(1R,2S)-1-[6-chloro-3-(propan-2-yl)-3H-imidazo[4,5-b]pyridin-2-yl]-2-methoxypropyl]-5-methylpyrazine-2-carboxamide]	10 nM
CO[C@H](C)[C@H](NC(=O)c1cnc(C(F)F)cn1)c1nc2cc(C(F)(F)F)cnc2n1C(C)C [Example 24, 5-(difluoromethyl)-N-[(1R)-2-methoxy-1-[3-(propan-2-yl)-6-(trifluoromethyl)-3H-imidazo[4,5-b]pyridin-2-yl]propyl]pyrazine-2-carboxamide]	10 nM

The next compounds have a lower IC50 than those just listed; values first:

IC50	SMILES
7 nM	Cc1c(C#N)cnc2c1nc([C@@H](NC(=O)c1cnc(C(F)F)cn1)[C@H]1CCCO1)n2C(C)C [Example 17, N-[(R)-[6-cyano-7-methyl-3-(propan-2-yl)-3H-imidazo[4,5-b]pyridin-2-yl][(2R)-oxolan-2-yl]methyl]-5-(difluoromethyl)pyrazine-2-carboxamide]
7 nM	Cc1cnc(C(=O)N[C@@H](C[C@H]2CCCO2)c2nc3c(C)c(C#N)cnc3n2C(C)C)cn1 [Example 18, N-[(1S)-1-[6-cyano-7-methyl-3-(propan-2-yl)-3H-imidazo[4,5-b]pyridin-2-yl]-2-[(2R)-oxolan-2-yl]ethyl]-5-methylpyrazine-2-carboxamide]
6 nM	Cc1cnc(C(=O)N[C@H](c2nc3c(C)c(C#N)cnc3n2C(C)C)C2CCC2)cn1 [Example 15, N-[(S)-[6-cyano-7-methyl-3-(propan-2-yl)-3H-imidazo[4,5-b]pyridin-2-yl](cyclobutyl)methyl]-5-methylpyrazine-2-carboxamide]
5 nM	Cc1cnc(C(=O)N[C@@H](CC2CC2)c2nc3c(C)c(C#N)cnc3n2C(C)C)cn1 [Example 14, N-[(1S)-1-[6-cyano-7-methyl-3-(propan-2-yl)-3H-imidazo[4,5-b]pyridin-2-yl]-2-cyclopropylethyl]-5-methylpyrazine-2-carboxamide]
4 nM	CO[C@H](C)[C@H](NC(=O)c1cnc(C)cn1)c1nc2cc(Cl)cnc2n1C(C)C [Example 13, N-[(1R,2R)-1-[6-chloro-3-(propan-2-yl)-3H-imidazo[4,5-b]pyridin-2-yl]-2-methoxypropyl]-5-methylpyrazine-2-carboxamide]
